Entries after “also recorded” stand apart in the source; their conditions may differ.
Legend:
Format in all cases: in vivo
LPS pretreated mice [1] = assay: Radiant tail flick antinociception, LPS pretreated mice; conditions: for % MPE / dose range of antinociception: LPS pretreated; for ED50 (CI) i.t. / ED50 (CI) i.c.v.: LPS pretreated (1 mg/kg 24 hours i.p.)
Method: (§1) Compounds were dissolved in 10% DMSO and then diluted to less than 1% DMSO in the test solutions. […] Compounds were administered in a 5-μl volume in conscious mice, either i.c.v. (Haley T J & McCormick W G, Br J Pharmacol Chemother, 1957, 12(1), 12-15) or i.t. (Hylden J L K & Wilcox G L, Eur. J. Pharmacol., 1980, 67(2-3), 313-316). Peak times were determined by comparing the percent maximal possible effect (% MPE) at 5, 10, 20 and 60 minutes after injection.
The first group mice were pretreated with lipopolysaccaride (LPS, 1 mg/kg, i.p. from Escherichia coli 0111:B4; Sigma-Aldrich, St. Louis, Mo.) for 24 hours before testing for antinociception of compounds 2-6 (Seo Y-J, et al., Pharmacol., Biochem. Behav., 2008, 91, 121-127). This group was compared to a group without pretreatment.
(§2) The tail flick assay is used first to test for antinociception as described by D'Amour and Smith (D'AMOUR FE & SMITH DL (1941) J. Pharmacol. Exp. Ther. 72(1):74-79) and modified by Dewey et al. (Dewey W L, Harris L S, Howes J F, & Nuite JA (1970) J. Pharmacol. Exp. Ther. 175(2):435-442). For the measurement of the tail-flick latency, mice are wrapped in a light cloth and held gently in one hand with the tail positioned in the apparatus (Tail Flick Analgesia Meter, Columbus Instruments, Columbus, Ohio) for radiant heat stimulus. The tail-flick response is elicited by applying radiant heat to the dorsal side of the tail. The intensity of the heat is set so that the mouse flicks its tail within 2 to 3 seconds. The test latency is measured before drug treatment (control) and again after the drug treatment (test) at the peak time of the compound; a 10 second maximum cut-off time is used to prevent damage to the tail. Antinociception is quantified according to the Harris L S & Pierson A K, J. Pharmacol. Exp. Ther., 1964, 143(2):141-148, as the percent maximal possible effect (% MPE), which is calculated as: % MPE=(Test−Control/10−Control)×100.
(§3) At least three groups of four to ten mice are used for each dose response curve. ED50 values with 95% confidence intervals (C.I.) are computed with GraphPad Prism 4 by using nonlinear regression methods.

control mice [2] = assay: Radiant tail flick antinociception, control (not pretreated) mice; conditions: controls; for % MPE: 250 pmol/mouse; for ED50 (CI) i.c.v. / ED50 (CI) i.t.: tail flick
Method: as §1, §2, §3

LPS pretreated mice [3] = assay: Acute (24 hour) tolerance, tail flick, LPS pretreated mice; conditions: 24 hours
Method: (§4) Acute tolerance utilizing the radiant tail flick assay was measured by comparing the ED80-90 dose on day 1 to the same dose measured 24 hours later on the same mouse. For the LPS pretreated mice, no additional LPS was given to the mice for the acute tolerance test. […] However, the effect was less robust 72 hours after the initial LPS injection. Thus confirming that the acute tolerance test was accurate for the LPS pretreated mice.

control mice [4] = assay: Acute (24 hour) tolerance, tail flick, control mice; conditions: controls
Method: as §4

Compound | % MPE (LPS pretreated mice [1]; i.t., 250 pmol/mouse) | % MPE (control mice [2]; i.c.v.) | % MPE (control mice [2]; i.t.) | Tolerance (LPS pretreated mice [3]; i.t.) | ED50 (CI) i.t. (LPS pretreated mice [1]; i.t.) | % MPE (LPS pretreated mice [1]; i.c.v., 500 pmol/mouse) | dose range of antinociception (LPS pretreated mice [1]; i.t.) | Tolerance (control mice [4]; i.c.v.) | Tolerance (control mice [4]; i.t.) | ED50 (CI) i.c.v. (control mice [2]; i.c.v.) | ED50 (CI) i.t. (control mice [2]; i.t.) | Tolerance (LPS pretreated mice [3]; i.c.v.) | ED50 (CI) i.c.v. (LPS pretreated mice [1]; i.c.v.)
COc1cccc(C#Cc2cccc(C)n2)c1 [Compound 2, 2-((3-methoxyphenyl)ethynyl)-6-methylpyridine, reference compound] | 21.96 ± 10.50% MPE | 14.59 ± 4.63% MPE | 13.27 ± 3.39% MPE | – | – | – | – | – | – | – | – | – | –
Cc1cccc(C#Cc2cccc(OCCNC(=O)COCC(=O)N[C@H]3CC[C@@]4(O)C5Cc6ccc(O)c7c6[C@@]4(CCN5C)[C@H]3O7)c2)n1 [Compound 3, N-((4aS,7S,7aR,12bS)-4a,9-dihydroxy-3-methyl-2,3,4,4a,5,6,7,7a-octahydro-1H-4,12-methanobenzofuro[3,2-e]isoquinolin-7-yl)-2-(2-((2-(3-((6-methylpyridin-2-yl)ethynyl)phenoxy)ethyl)amino)-2-oxoethoxy)acetamide] | – | – | – | Tolerance was also observed; also recorded: exhibited tolerance | 8.17 pmol/mouse | 56.86 ± 8.95% MPE | nmol range | Tolerance | No Tolerance | 529.6 pmol/mouse | 114.7 pmol/mouse | – | –
Cc1cccc(C#Cc2cccc(OCCNC(=O)COCC(=O)NCCNC(=O)COCC(=O)N[C@H]3CC[C@@]4(O)C5Cc6ccc(O)c7c6[C@@]4(CCN5C)[C@H]3O7)c2)n1 [Compound 4a, N-((4aS,7S,7aR,12bS)-4a,9-dihydroxy-3-methyl-2,3,4,4a,5,6,7,7a-octahydro-1H-4,12-methanobenzofuro[3,2-e]isoquinolin-7-yl)-2-((14-(3-((6-methylpyridin-2-yl)ethynyl)phenoxy)-2,7,11-trioxo-9-oxa-3,6,12-triazatetradecyl)oxy)acetamide] | – | – | – | created tolerance; also recorded: exhibited tolerance | 20.57 pmol/mouse | – | nmol range | Tolerance | Tolerance | 119.50 pmol/mouse | 34.31 pmol/mouse | Tolerance | 80.85 pmol/mouse
Cc1cccc(C#Cc2cccc(OCCNC(=O)COCC(=O)NCCCNC(=O)COCC(=O)N[C@H]3CC[C@@]4(O)C5Cc6ccc(O)c7c6[C@@]4(CCN5C)[C@H]3O7)c2)n1 [Compound 4b, N-((4aS,7S,7aR,12bS)-4a,9-dihydroxy-3-methyl-2,3,4,4a,5,6,7,7a-octahydro-1H-4,12-methanobenzofuro[3,2-e]isoquinolin-7-yl)-2-((1-(3-((6-methylpyridin-2-yl)ethynyl)phenoxy)-4,8,14-trioxo-6-oxa-3,9,13-triazapentadecan-15-yl)oxy)acetamide] | – | – | – | devoid of tolerance; also recorded: No Tolerance | 10.08 pmol/mouse | – | nmol range | No Tolerance | No Tolerance | 113.3 pmol/mouse | 36.08 pmol/mouse | No Tolerance | 64.36 pmol/mouse

Reference: patent publication US9981043B2, “Analgesic conjugates” (priority 2013, dated 2018)
